Reference: patent publication US20210308089A1, “METHODS OF TREATING AND/OR PREVENTING VIRAL INFECTIONS AND/OR DISEASES CAUSED BY VIRUSES IN A SUBJECT IN NEED THEREOF” (priority 2020, published 2021)

What was measured:
[1] = system: TG, non-HDL-C, LDL-C, HDL-C, Apo B, hs-CRP; test: REDUCE-IT: fasting lipid, lipoprotein and inflammatory markers over time; format: in vivo, human
From the text: The key tertiary objectives for this study were to evaluate the effect of AMR101 4 g daily from baseline and percent change form baseline in fasting triglycerides and LDL-C. […]

[2] = system: symptomatic COVID-19 outpatients with positive SARS-CoV-2 test; test: VASCEPA-COVID-19: FLU-PRO symptom prevalence and scores (and correlation with hs-CRP); format: in vivo, human
[3] = Year 1 (as headed in Table 18), 4 g/day
[4] = Year 1 (as headed in Table 18), vs placebo

**Q.** What does the source list for CC/C=C\C/C=C\C/C=C\C/C=C\C/C=C\CCCC(=O)OCC [icosapent ethyl, eicosapentaenoic acid ethyl ester]?
**A.** LDL cholesterol median change (increase) from baseline ([1]; 4 g/day): 0.05 mmol/L; LDL-C derived median % change from baseline ([1]; Last Visit, 4 g/day, ITT): 3.1%; LDL-C derived median absolute change from baseline ([1]; Last Visit, 4 g/day, ITT): 2.0 mg/dL; Reduction in hs-CRP observed in patients from this trial ([1]; REDUCE-IT): 40%; Apo B median [1, 3]: 80.0 mg/dL; hs-CRP median [1, 3]: 1.8 mg/L; Apo B median between group difference, % change from baseline [1, 4]: −9.7%; Apo B median between group difference, absolute change from baseline [1, 4]: -8.0 mg/dL; hs-CRP median between group difference, absolute change from baseline [1, 4]: -0.9 mg/L; Triglycerides: median reduction from baseline greater than in placebo group (Hodges-Lehmann) ([1]; baseline to one year): 19.7%; Total FLU-PRO symptom prevalence reduced by ([2]; 14+3-day follow-up): 52%; Reduction in chest/respiratory symptoms (FLU-PRO prevalence) ([2]; baseline to follow-up): 69%; Change in mean FLU-PRO score, total domain ([2]; baseline to follow-up, patients with non-zero treatment compliance): −0.16
